According to PubChem BioAssay AID192 (DTP/NCI, 2004):
Values joined by “and” are separate entries in the source; they are usually repeats but may differ in a detail not shown here. Identical values can stand only once. Toxic doses and inconclusive results are not listed.

System: BDF1 mice, B16 melanoma ip, median survival T/C
Experiment: NCI In Vivo Anticancer Drug Screen. Data for tumor model B16 Melanoma (intraperitoneal) in B6D2F1 (BDF1) mice
Conditions: endpoint: median survival time, higher = longer survival
In short: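 The ratio T/C compares compound-treated mice with vehicle-treated controls, using survival or tumor size as the endpoint in a transplantable tumor model.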

[1] = dose: 12.5 mg/kg/injection, schedule: Q01DX009 (ip), vehicle: Klucel (hydroxypropylcellulose) (HPC)
[2] = dose: 12.5 mg/kg/injection, schedule: Q01DX009 (ip), vehicle: saline with Tween-80
[3] = dose: 25.0 mg/kg/injection, schedule: Q01DX009 (ip), vehicle: saline with Tween-80
[4] = dose: 50.0 mg/kg/injection, schedule: Q01DX009 (ip), vehicle: Klucel (hydroxypropylcellulose) (HPC)
[5] = dose: 50.0 mg/kg/injection, schedule: Q01DX009 (ip), vehicle: saline with Tween-80
[6] = dose: 100.0 mg/kg/injection, schedule: Q01DX009 (ip), vehicle: saline with Tween-80
[7] = dose: 100.0 mg/kg/injection, schedule: Q04DX003 (ip), vehicle: Klucel (hydroxypropylcellulose) (HPC)
[8] = dose: 200.0 mg/kg/injection, schedule: Q04DX003 (ip), vehicle: Klucel (hydroxypropylcellulose) (HPC)
[9] = dose: 400.0 mg/kg/injection, schedule: Q04DX003 (ip), vehicle: Klucel (hydroxypropylcellulose) (HPC)
[10] = dose: 100.0 mg/kg/injection, schedule: Q01DX009 (ip), vehicle: Klucel (hydroxypropylcellulose) (HPC)
[11] = dose: 200.0 mg/kg/injection, schedule: Q01DX009 (ip), vehicle: Klucel (hydroxypropylcellulose) (HPC)

## CC1CC[N-]CC1.CC1CC[N-]CC1.CC1CC[N-]CC1.CC1CC[N-]CC1.CS(C)=O.CS(C)=O.[Cl-].[Cl-].[Cl-].[Cl-].[Pt+4].[Rh+3]
dose: 0.2 mg/kg/injection, schedule: Q01DX009 (ip), vehicle: water
  T/C: 100 % of control
dose: 0.4 mg/kg/injection, schedule: Q01DX009 (ip), vehicle: water
  T/C: 104 % of control
dose: 0.8 mg/kg/injection, schedule: Q01DX009 (ip), vehicle: water
  T/C: 106 % of control
dose: 1.5 mg/kg/injection, schedule: Q01DX009 (ip), vehicle: water
  T/C: 106 % of control
dose: 3.0 mg/kg/injection, schedule: Q01DX009 (ip), vehicle: water
  T/C: 106 % of control

## COc1ccc2nc3cc(Cl)ccc3c(NCCNCCNCCNc3c4ccc(Cl)cc4nc4ccc(OC)cc34)c2c1
dose: 3.12 mg/kg/injection, schedule: Q01DX009 (ip), vehicle: Klucel (hydroxypropylcellulose) (HPC)
  T/C: 103 % of control
dose: 6.25 mg/kg/injection, schedule: Q01DX009 (ip), vehicle: Klucel (hydroxypropylcellulose) (HPC)
  T/C: 107 % of control
[1]
  T/C: 113 % of control
[2]
  T/C: 164 % of control
dose: 12.5 mg/kg/injection, schedule: Q01DX009 (ip), vehicle: saline
  T/C: 155 % of control
dose: 25.0 mg/kg/injection, schedule: Q01DX009 (ip), vehicle: Klucel (hydroxypropylcellulose) (HPC)
  T/C: 113 % of control
[3]
  T/C: 160 % of control
dose: 25.0 mg/kg/injection, schedule: Q01DX009 (ip), vehicle: saline
  T/C: 150 % of control
[4]
  T/C: 113 % of control
[5]
  T/C: 119 % of control
[6]
  T/C: 90 % of control

## CS(=O)(=O)OCCN(CCOS(C)(=O)=O)c1ccc(C=O)cc1
dose: 6.25 mg/kg/injection, schedule: Q01DX009 (ip), vehicle: saline with Tween-80
  T/C: 170 % of control

## Nc1ncnc2c1cnn2C1OC(CO)C(O)C1O (centres undefined)
[2]
  T/C: 113 % of control
[3]
  T/C: 109 % of control

## CC12CCC3C(CCC4CC(OC(=O)Cc5ccc(N(CCCl)CCCl)cc5)CCC43C)C1CCC(=O)N2 (centres undefined)
dose: 0.75 mg/kg/injection, schedule: Q01DX009 (ip), vehicle: saline
  T/C: 113 % of control
dose: 1.5 mg/kg/injection, schedule: Q01DX009 (ip), vehicle: saline with Tween-80
  T/C: 110 % of control
dose: 1.5 mg/kg/injection, schedule: Q01DX009 (ip), vehicle: saline
  T/C: 121 % of control
dose: 3.0 mg/kg/injection, schedule: Q01DX009 (ip), vehicle: saline
  T/C: 121 % of control
dose: 12.0 mg/kg/injection, schedule: Q01DX009 (ip), vehicle: saline
  T/C: 154 % of control

## COC1CC(C)C(OC)c2cc(O)cc(c2O)NC(=O)/C(C)=C/C=C\C(C)C(OC(N)=O)/C(C)=C\C(C)C1OC (centres undefined)
dose: 2.5 mg/kg/injection, schedule: Q01DX009 (ip), vehicle: Klucel (hydroxypropylcellulose) (HPC)
  T/C: 176 % of control and 187 % of control
dose: 5.0 mg/kg/injection, schedule: Q01DX009 (ip), vehicle: Klucel (hydroxypropylcellulose) (HPC)
  T/C: 177 % of control and 208 % of control
dose: 5.0 mg/kg/injection, schedule: Q01DX009 (ip), vehicle: saline + alcohol
  T/C: 242 % of control

## CCOC1=CCN(S(=O)(=O)c2ccc(C)cc2)c2ccc(OC)cc21
[7]
  T/C: 102 % of control
[8]
  T/C: 104 % of control
[9]
  T/C: 94 % of control

## CCCCCCCNC(=O)Nc1cccc(Cl)c1C
[4]
  T/C: 99 % of control
[10]
  T/C: 90 % of control
[11]
  T/C: 95 % of control

## CCCCC[C@H](O)/C=C/[C@@H]1[C@@H](C/C=C\CCCC(=O)O)[C@@H](O)C[C@H]1O
dose: 0.25 mg/kg/injection, schedule: Q#A X020 (ip), vehicle: saline with Tween-80
  T/C: 109 % of control
dose: 1.0 mg/kg/injection, schedule: Q#A X020 (ip), vehicle: saline with Tween-80
  T/C: 100 % of control
dose: 2.0 mg/kg/injection, schedule: Q#A X020 (ip), vehicle: saline with Tween-80
  T/C: 110 % of control
dose: 10.0 mg/kg/injection, schedule: Q04DX002 (ip), vehicle: saline
  T/C: 113 % of control
dose: 20.0 mg/kg/injection, schedule: Q04DX002 (ip), vehicle: saline
  T/C: 95 % of control
dose: 40.0 mg/kg/injection, schedule: Q04DX002 (ip), vehicle: saline
  T/C: 108 % of control
dose: 80.0 mg/kg/injection, schedule: Q04DX002 (ip), vehicle: saline
  T/C: 108 % of control
dose: 160.0 mg/kg/injection, schedule: Q04DX002 (ip), vehicle: saline
  T/C: 97 % of control
dose: 320.0 mg/kg/injection, schedule: Q04DX002 (ip), vehicle: saline
  T/C: 97 % of control

## CC(=O)Nc1ccc2c(Nc3ccc(NS(C)(=O)=O)cc3)c3ccccc3nc2c1
dose: 3.8 mg/kg/injection, schedule: Q01DX009 (ip), vehicle: saline sonified
  T/C: 112 % of control
dose: 7.5 mg/kg/injection, schedule: Q01DX009 (ip), vehicle: saline sonified
  T/C: 110 % of control
dose: 15.0 mg/kg/injection, schedule: Q01DX009 (ip), vehicle: saline with Tween-80
  T/C: 162 % of control
dose: 30.0 mg/kg/injection, schedule: Q01DX009 (ip), vehicle: saline sonified
  T/C: 164 % of control
dose: 30.0 mg/kg/injection, schedule: Q01DX009 (ip), vehicle: saline with Tween-80
  T/C: 185 % of control
dose: 200.0 mg/kg/injection, schedule: Q01DX001 (ip), vehicle: saline sonified
  T/C: 155 % of control
dose: 400.0 mg/kg/injection, schedule: Q01DX001 (ip), vehicle: saline sonified
  T/C: 194 % of control

## C=CCn1c(=S)[nH]c2ccccc2c1=O
[5]
  T/C: 96 % of control
[6]
  T/C: 96 % of control
dose: 100.0 mg/kg/injection, schedule: Q04DX003 (ip), vehicle: saline with Tween-80
  T/C: 105 % of control
dose: 200.0 mg/kg/injection, schedule: Q01DX009 (ip), vehicle: saline with Tween-80
  T/C: 93 % of control
dose: 200.0 mg/kg/injection, schedule: Q04DX003 (ip), vehicle: saline with Tween-80
  T/C: 94 % of control
dose: 400.0 mg/kg/injection, schedule: Q04DX003 (ip), vehicle: saline with Tween-80
  T/C: 92 % of control

## CN1CCC23c4ccccc4NC1C21CCN(C)C3Nc2ccccc21
dose: 1.87 mg/kg/injection, schedule: Q01DX009 (ip), vehicle: saline
  T/C: 107 % of control
dose: 3.75 mg/kg/injection, schedule: Q01DX009 (ip), vehicle: saline
  T/C: 107 % of control
dose: 7.5 mg/kg/injection, schedule: Q01DX009 (ip), vehicle: saline
  T/C: 109 % of control

## O=C(O)C1C(C(=O)O)C2(Cl)C(Cl)=C(Cl)C1(Cl)C2(Cl)Cl.[Fe] (centres undefined)
[3]
  T/C: 93 % of control
[5]
  T/C: 95 % of control
[6]
  T/C: 93 % of control

## OCCN1CCN(CC/C=C2\c3ccccc3COc3ccc(Cl)cc32)CC1
dose: 2.0 mg/kg/injection, schedule: Q01DX009 (ip), vehicle: saline
  T/C: 105 % of control
dose: 4.0 mg/kg/injection, schedule: Q01DX009 (ip), vehicle: saline
  T/C: 113 % of control

## CCCCn1cnc2c(N)ncnc21
[1]
  T/C: 92 % of control
[4]
  T/C: 87 % of control

## O=S(=O)(O)C(O)c1cccnc1 (centres undefined)
[2]
  T/C: 102 % of control
[3]
  T/C: 86 % of control
[5]
  T/C: 89 % of control

## Cc1cc(C)c(-c2c(C)cc(C)c(N)c2C)c(C)c1N
dose: 75.0 mg/kg/injection, schedule: Q04DX003 (ip), vehicle: Klucel (hydroxypropylcellulose) (HPC)
  T/C: 91 % of control

## CCCCNS(=O)(=O)c1ccc(OC)c(N)c1
[7]
  T/C: 95 % of control
[8]
  T/C: 95 % of control
[9]
  T/C: 111 % of control

## O=C(c1ccc(O)cc1O)c1cccc2ccccc12
[10]
  T/C: 98 % of control
[11]
  T/C: 98 % of control
dose: 400.0 mg/kg/injection, schedule: Q01DX009 (ip), vehicle: Klucel (hydroxypropylcellulose) (HPC)
  T/C: 100 % of control

## CC(=O)OC1C(C)OC(OC(=O)C2CCC3C(C2)OC2(CC(OC(=O)/C=C/c4ccccc4)C(C)CO2)C32CO2)C(OC2OC(C)C(O)C(OC(C)=O)C2O)C1O (centres undefined)
dose: 6.0 mg/kg/injection, schedule: Q01DX009 (ip), vehicle: saline + alcohol
  T/C: 152 % of control
dose: 12.0 mg/kg/injection, schedule: Q01DX009 (ip), vehicle: saline + alcohol
  T/C: 186 % of control
dose: 24.0 mg/kg/injection, schedule: Q01DX009 (ip), vehicle: saline + alcohol
  T/C: 205 % of control
dose: 48.0 mg/kg/injection, schedule: Q01DX009 (ip), vehicle: saline + alcohol
  T/C: 193 % of control
